Experiments:
[1] = system: 180 kDa heteropentamer and 90 kDa monomer-Gi α of Y2 receptor; conditions: 10 mM CHAPS, cited from earlier work
Description: The stability and affinity of agonist association with CHO-Y2 receptors could also be analyzed at the level of dimers and monomers by extraction and precipitation procedures coupled to competition binding assays (Figure 6). […] The 180 kDa labeled material is not sensitive to ...

[2] = system: neuropeptide Y (NPY) receptor dimers; conditions: cited from earlier work
Description: The most studied and probably the most frequent complexes of eukaryotic heptahelical receptors are those with G-protein αβγ heterotrimers. With many GPCR dimers these assemblies survive solubilization by steroid detergents such as digitonin and cholate and could be detected as ~180 kDa heteropentamers by density gradient centrifugation ([15, 16]; see also Figure 1 in this study) and also can be solubilized by acylamine oxide surfactants such as lauryldimethylamine oxide (LDAO) and detected by circular dichroism spectroscopy. The frequently used zwitterionic detergents, e.g., CHAPS (3 ...

[3] = system: Y2 receptor aggregates (anterior hypothalamus); assay: Y2 receptor aggregates, sedimentation after treatment, rabbit anterior hypothalamus particulates; type: biochemical; conditions: 20 μM, 15 min at 24 °C, 10%–30% gradient 6 h at 218,000× g
Method: (§1) Figure 5. […] Particulates from rabbit kidney (A) and anterior hypothalamus (B) were incubated with 20 μM GγS or 10 μM U73122 for 15 min at 24 °C, sedimented, resuspended, labeled with 50 pM [^125I]hPYY(3–36) for 15 min at 24 °C, resedimented, lysed at 10 mM each digitonin and cholate and sedimented through a 10%–30% linear sucrose gradient for 6 h at 218,000× g and 5 °C, followed by gradient fractionation and counting. TEXT PRINTED IN THE PICTURE: (A) GγS: Bottom count: 10.8% | (A) U73122: Bottom count: 25.4% | (B) GγS: Bottom count: 8.98 % | (B) U73122: Bottom count: 17.4 %
(§2) Rabbit kidney postmitochondrial particulates, rabbit piriform cortex and hypothalamic crude synaptosomes and CHO cell postnuclear particulates were prepared as described previously. After solubilization of particulates at 10 mM each of digitonin and sodium cholate in buffer A or B, the lysates were spun for 10 min at 1000× g to remove debris, and the supernatants sedimented for periods indicated in figure captions at 218,000× gmax through linear 5%–20% sucrose gradients (10 mL, made in buffer A). The gradients were divided by bottom dripping in 23 fractions of 0.45 mL. […]

[4] = system: 180 kDa heteropentamer (Y2 receptor dimer, G-protein trimer); assay: Nucleotide labeling / conversion of 180 kDa heteropentamer to 90 kDa Gi3α-receptor monomer; type: biochemical
Method: (§3) The receptors were labeled for 30 min at 25 °C in respective particulates (50 μg protein/assay), employing not more than 50 pM [^125I]-labeled agonist peptides (as stated in individual experiments). Higher molar inputs of agonist peptides would produce significant Gα activation within short exposures (e.g., [24, 53]). The basal assay buffer contained 0.2% proteinase-free bovine serum albumin, 20 mM hepes.NaOH (pH 7.4), 1 mM diisopropylfluorophosphate, 0.04% bacitracin, and 10 μg/mL each of proteinase inhibitors aprotinin, bestatin, chymostatin, leupeptin and pepstatin. Depending on experiment design, this was supplemented by 3 mM CaCl2 and 1 mM MgCl2, (buffer A) or by 1 mM Na EDTA, pH 7.4 (buffer B). The nucleotide site labeling at 200 pM [^35S]GγS was for 30 min at 28 °C after pre-activation for 30 min at 28 °C at 3 μM GDP in the basal buffer with 50 μM EDTA, 100 mM NaCl and 4 mM MgCl2, and without CaCl2 (buffer C). All subsequent operations were carried out at 0–5 °C. The assays were terminated by sedimentation for 10 min at 30,000× gmax, followed by surface wash of the pellets.
as §2, with “mL. The sedimentation positions were calibrated with [^125I]-labeled bovine γ-globulin (158 kDa), human iron-saturated transferrin (75 kDa) and ovalbumin (44 kDa), and with colorized myosin (211 kDa), producing a linear relation of migration to molecular weight (R^2 > 0.99).” for “mL.”

[5] = system: aggregated Y2 receptor material (rabbit kidney and CHO-Y2 particulates); assay: Release of aggregated Y2 receptor material (bottom of 5%–20% gradients); type: biochemical; conditions: 20 μM
Method: More than 30% of the Y2 binding in rabbit kidney postmitochondrial particulates, and more than 20% in the CHO-Y2 postnuclear particulates sediments to the bottom of 5%–20% sucrose gradients over 18 h at 218,000× gmax, corresponding to weight in excess of 1000 kDa. A large part of this material sediments at 30,000× gmax over 10 min, and could be considered as aggregated. […] This preliminary experiment points to potential of such procedures in quantitation of effector-associated receptors at the level of dimers and monomers. There also is a promise of gaining more insight on the size and significance of receptor oligomers incorporating more than two receptor monomers.
(§4) Rabbit kidney postmitochondrial particulates, rabbit piriform cortex and hypothalamic crude synaptosomes and CHO cell postnuclear particulates were prepared as described previously. After solubilization of particulates at 10 mM each of digitonin and sodium cholate in buffer A or B, the lysates were spun for 10 min at 1000× g to remove debris, and the supernatants sedimented for periods indicated in figure captions at 218,000× gmax through linear 5%–20% sucrose gradients (10 mL, made in buffer A). The gradients were divided by bottom dripping in 23 fractions of 0.45 mL. The sedimentation positions were calibrated with [^125I]-labeled bovine γ-globulin (158 kDa), human iron-saturated transferrin (75 kDa) and ovalbumin (44 kDa), and with colorized myosin (211 kDa), producing a linear relation of migration to molecular weight (R^2 > 0.99).

[6] = system: Y2 receptor aggregates (rabbit kidney); assay: Y2 receptor aggregates, sedimentation after treatment, rabbit kidney particulates; type: biochemical; conditions: 15 min at 24 °C
Method: as §1, §4

G-protein α subunit = assay: Stability of GγS labeling; type: biochemical; conditions: 4 °C
Method: as §3

Gi/o subunits = conditions: hypothalamic vs. rabbit kidney cortex; Table 2; cited from earlier work
Description: (§5) Figure 2. Rundown of the Y2 agonist is much faster in tissues with large Gi/o content. […] The rabbit kidney cortex has a much lower expression of Gi/o subunits than the anterior hypothalamus (The Bmax for [^35S]GγS binding is more than 20-fold higher in hypothalamic tissue (ref. [24], Table 2). However, the kidney Y2 receptor is expressed at about four times the level of the hypothalamic. The above parameters in the Ca^2+/Mg^2 ...

[7] = system: Y2 receptor dimers (CHO cells); assay: Dimer content of Y2 receptors labeled by [^125I]PYY(3–36) in density gradients; type: binding, human receptor in CHO cells; conditions: duplicate gradients; for dimer content: labeled 30 min at 25 °C; for content of dimer: particulates from CHO cells, labeled 20 min at 27 °C
Method: Figure 1. Stability of agonist-labeled Y2 receptor dimers to incubation at 27 °C and to removal of divalent cations. Duplicate 5%–20% gradients (see Section 3.3) were centrifuged for 18 h at 5 °C. All results are average percentages of total counts in the corresponding gradient fractions from two gradients for each condition. The respective standard errors were in most cases below 10%, and for clarity are not shown. (A) Y2 receptor dimers in particulates from CHO cells are stable to incubation at 27 °C. The incubation of particulate suspension in the assay buffer at 27 °C was for 1 h (followed by 2 h at 0–4 °C) or 3 h, while the control suspension was incubated in ice for 3 h. […] The content of dimer, in % total gradient counts, was 66.2 ± 3.7 for 4 °C control, 63.4 ± 3.4 after preincubation for 1 h at 27 °C, and 64.3 ± 3.4 after preincubation for 3 h at 27 °C; (B) Y2 receptor dimers are not disbanded by removal of divalent cations.
as §3, with “Higher” for “The receptors were labeled for 30 min at 25 °C in respective particulates (50 μg protein/assay), employing not more than 50 pM [^125I]-labeled agonist peptides (as stated in individual experiments). Higher”
as §4

[8] = system: Y2 receptor (hypothalamic particulates); assay: Rundown of Y2 agonist tracer, anterior hypothalamus; type: biochemical, rabbit; conditions: 50 pM, 60 min at 25 °C, Ca^2+/Mg^2+ buffer
Description: as §5, with “Ca^2+/Mg^2+ buffer lead to a much faster transduction with hypothalamic particulates (graph A); and a considerable (58%) rundown of the tracer peptide relative to 1 mM EDTA buffer. In the same assay, the relative rundown is only 12% with kidney particulates (graph B).” for “Ca^2+/Mg^2 ...”
as §3, with “The nucleotide site labeling at 200 pM [^35S]GγS was for 30 min at 28 °C after pre-activation for 30 min at 28 °C at 3 μM GDP in the basal buffer with 50 μM EDTA, 100 mM NaCl and 4 mM MgCl2, and without CaCl2 (buffer C). All subsequent operations were carried out at 0–5 °C. The assays were terminated by sedimentation for 10 min at 30,000× gmax, followed by surface wash of the pellets.” left out

[9] = system: rabbit kidney Y2 receptor; assay: PYY(3–36) binding to rabbit kidney Y2 receptor (heteropentamer and monomer forms); conditions: rabbit kidney particulates, digitonin and cholate lysis
[10] = system: Y2 receptor (rabbit kidney cortex particulates); assay: Rundown of Y2 agonist tracer, kidney cortex; type: biochemical; conditions: 50 pM, 60 min at 25 °C, Ca^2+/Mg^2+ buffer
Description: as §5, with “Ca^2+/Mg^2+ buffer lead to a much faster transduction with hypothalamic particulates (graph A); and a considerable (58%) rundown of the tracer peptide relative to 1 mM EDTA buffer. In the same assay, the relative rundown is only 12% with kidney particulates (graph B).” for “Ca^2+/Mg^2 ...”
Higher molar inputs of agonist peptides would produce significant Gα activation within short exposures (e.g., [24, 53]). The basal assay buffer contained 0.2% proteinase-free bovine serum albumin, 20 mM hepes.NaOH (pH 7.4), 1 mM diisopropylfluorophosphate, 0.04% bacitracin, and 10 μg/mL each of proteinase inhibitors aprotinin, bestatin, chymostatin, leupeptin and pepstatin. Depending on experiment design, this was supplemented by 3 mM CaCl2 and 1 mM MgCl2, (buffer A) or by 1 mM Na EDTA, pH 7.4 (buffer B). […]

NPY receptor dimers = conditions: via ADP-ribosylation of Gαi subunits; cited from earlier work
Description: The virtues of oligomerization for GPCRs are many. Oligomers would have much larger ability than monomers to anchor to the membranes, rafts and vesicles. Protein (including the receptor) removal by particulate (proteasomal and/or lysosomal) proteolysis is found to be much less for dimers compared to monomers, as is also observed for enzyme carriers. This is dramatically confirmed by elimination of NPY receptor dimers by pertussis toxin via ADP-ribosylation of Gαi subunits. Association with transducers and effectors could also be enhanced for the dimers. Chances ...

CHO-Y2 dimers = conditions: ADP-ribosylation of Gi type α subunits; cited from earlier work
Description: (§6) This could be of interest in many physiological conditions. The loss of CHO-Y1 and CHO-Y2 dimers due to neutralization of Gi type α subunits through ADP-ribosylation by pertussis toxin [16, 29] could be viewed as a constitutive equivalent of the reduction shown in Figure 4. In conditions of normal Gi utilization in CHO-Y2, the di ...

CHO-Y1 dimers = conditions: ADP-ribosylation of Gi type α subunits; cited from earlier work
Description: as §6

C[C@H](CCC(=O)NCCC[N+](C)(C)CCCS(=O)(=O)[O-])[C@H]1CC[C@H]2[C@@H]3[C@H](O)C[C@@H]4C[C@H](O)CC[C@]4(C)[C@H]3C[C@H](O)[C@]12C [CHAPS, 3-[3-cholamidopropyldimethylammonio]-1-propanesulfonate]
sensitivity of 180 kDa binding ([1]; relative to 90 kDa zone): much less sensitive | effect on 90 kDa zone agonist binding [1]: completely dissociates | effect on NPY receptor dimers [2]: tend to destabilize

Nc1nc2c(ncn2[C@@H]2O[C@H](COP(=O)(O)OP(=O)(O)OP(O)(O)=S)[C@@H](O)[C@H]2O)c(=O)[nH]1 [GγS, Guanosine 5′-O-(γ-thiotriphosphate)]
Bottom count [3]: 8.98% | labeling of G-protein trimer in 180 kDa heteropentamer [4]: not labeled | conversion of 180 kDa heteropentamer ([4]; 1–5 mM Mg^2+, micromolar GDP or GγS): does convert to immunoprecipitable 90 kDa Gi3α-receptor monomer | form of released material [5]: largely in the form of activated monomers | part of aggregated material released [5]: A considerable part | main form yielded from Y2 receptor aggregates ([6]; particulates from rabbit tissues (kidney and anterior hypothalamus), GγS 20 μM or U73122 10 μM): mainly Gi-Y2 monomer | Bottom count ([6]; rabbit kidney, 20 μM, 10%–30% gradient 6 h at 218,000× g): 10.8% | stability of G-protein α subunit labeling (G-protein α subunit): stable at 4 °C

Nc1nc2c(ncn2C2OC(COP(=O)(O)OP(=O)(O)OP(O)(O)=[35S])C(O)C2O)c(=O)[nH]1 (centres unmarked) [[^35S]GγS, [^35S]guanosine 5′-(γ-thio)triphosphate]
Bmax for binding, hypothalamic relative to kidney tissue (Gi/o subunits): more than 20 fold

[^125I]PYY(3–36): Monoiodinated HPLC-purified [^125I]human PYY(3–36), labeled Y2 agonist
dimer content ([7]; buffer A (3 mM CaCl2, 1 mM MgCl2)): 65.9 ± 4.7 % gradient counts | dimer content ([7]; buffer B (1 mM Na EDTA, divalent cations removed)): 60.8 ± 4.6 % gradient counts | content of dimer ([7]; 4 °C control (3 h in ice)): 66.2 ± 3.7 % total gradient counts | content of dimer ([7]; preincubation 1 h at 27 °C (then 2 h at 0–4 °C)): 63.4 ± 3.4 % total gradient counts | content of dimer ([7]; preincubation 3 h at 27 °C): 64.3 ± 3.4 % total gradient counts | rundown of the tracer peptide relative to 1 mM EDTA buffer [8]: 58% | degradation of the receptor-bound tracer [9]: very low | rundown of the tracer peptide relative to 1 mM EDTA buffer [10]: 12%

pertussis toxin
effect on NPY receptor dimers (NPY receptor dimers): elimination | effect on CHO-Y2 dimers (CHO-Y2 dimers): loss | effect on CHO-Y1 dimers (CHO-Y1 dimers): loss
